“And” between values parts separate entries of the source, which are not always exact repeats. Equal entries are not always repeated.
Key:
[1] = Example 4: pharmacodynamics (serum hormones, urine 6β-hydroxycortisol to cortisol ratio); assay type: in vivo, human; details: in vivo
Text: (§1) Descriptive statistics were used to summarize pharmacodynamic parameters: serum concentrations of estradiol (E2), FSH, LH, progesterone, growth hormone (GH), prolactin (PRL), thyrotropin, adrenocorticotropic hormone (ACTH) and urine 6β-hydroxycortisol to cortisol ratios (Q).

[2] = test system: estradiol (E2), FSH, LH, progesterone; assay: as above; assay type: in vivo, human; details: 10 mg to 40 mg QD
Text: as §1

[3] = Example 5A: plasma concentrations, population PK; assay type: in vivo, human
Description: At Visit 3, blood was drawn twice, at 0.5 to 1.5 hours postdose and at 2 to 5 hours postdose, from each evaluable subject. At Visits 4, 5 and 6, blood was drawn once immediately prior to the dose for each day, and again at 0.5 to 1.5 hours postdose and at 2 to 5 hours postdose, from each evaluable subject. Blood was drawn only once for patients who took the study drug for the day before visiting the investigational site. At Visit 7, blood was drawn only once at the visit.

[4] = test system: healthy pre-menopausal women; assay: Example 9: pharmacodynamics, menstruation, hot flash diary, bone resorption markers; assay type: in vivo, human
Text: Methods: This was a 6-week phase 1, randomized, open-label, parallel-group, study conducted at 4 sites in the US. […] The first day of dosing occurred on Day 1 to 6 of the menstrual cycle. Hormonal preparations were prohibited for at least 3 months prior to screening. […] Vasomotor symptoms were captured using a daily diary (from screening until follow-up).

FIG. 5B = assay: FIG. 5B
Text: Table printed on a drawing sheet, FIG. 5B
The patent's description of the figure: FIGS. 5A-C are tables of plasma pharmacokinetic (PK) parameters for Cohorts 1 to 6 in accordance with Example 4.
First reader's note: Plasma PK parameters by dose cohort; the series starts in FIG. 5A on another sheet and continues in FIG. 5C.

FIG. 7B = assay: FIG. 7B
Text: Table printed on a drawing sheet, FIG. 7B
The patent's description of the figure: FIGS. 7A-F are tables of plasma PK parameters for Cohorts 8 to 10 in accordance with Example 4.
First reader's note: Each column is a dose group; per the description these are Day 1 plasma PK values for Cohorts 8 to 10.

women with endometriosis = assay: Example 8A: safety (adverse events, BMD, menstruation recovery); details: for Change from Baseline in BMD, mean: Week 24
Description: Study participants were premenopausal (≥20 years) Japanese women with endometriosis (EM)-associated pain who completed a preceding 12-week study and were eligible to continue for an additional 12-week treatment were enrolled. The participants has confirmed normal regular menstrual cycles (25 to 38 days per cycle) and diagnosed to have EM and EM-related dysmenorrhea and pelvic pain of at least moderate severity as determined by the physician B&B scale. The primary endpoint was the safety including assessment of change in bone mineral density (BMD) using dual energy x-ray absorptiometry, adverse events, vital signs, weight, 12-lead electrocardiograms, and clinical laboratory tests.
The present extension study consisted of an additional treatment period of 12 weeks and a follow-up period of 4 weeks. Overall treatment duration was 24 weeks from the beginning of the preceding phase 2 study. Patients were assigned to the same treatment group as the preceding phase 2 study.

[5] = test system: women with uterine fibroids; details: in vivo
Description: Secondary endpoints for safety included: Adverse events (AEs), vital signs, weight, standard 12-lead electrocardiogram (ECG), clinical laboratory tests, BMD, biochemical bone metabolism markers (serum N-telopeptide [NTELOP] and bone specific alkaline phosphatase [BAP])

CONC(=O)Nc1ccc(-c2sc3c(c2CN(C)C)c(=O)n(-c2ccc(OC)nn2)c(=O)n3Cc2c(F)cccc2F)cc1 [Compound 1, N-(4-(1-(2,6-difluorobenzyl)-5-((dimethylamino)methyl)-3-(6-methoxy-3-pyridazinyl)-2,4-dioxo-1,2,3,4-tetrahydrothieno[2,3-d]pyrimidin-6-yl)phenyl)-N′-methoxyurea]
effect on endogenous GH, PRL, thyrotropin, and ACTH [1]: no apparent effect | ovulation (post-ovulation progesterone increase) [2]: prevented ovulation | increase in relative bioavailability, 40 mg vs 10 mg ([3]; human, plasma, oral, population PK, read-out: relative bioavailability higher in 40-mg compared with 10-mg): 30.9% | absorption rate constant (ka) ([3]; population estimate): 0.416 h⁻¹ | apparent oral clearance (CL/F) ([3]; population estimate): 198 L/h | No bleeding ([4]; last 28 days of treatment): 18 (72.0%) n (%) | No light/normal/heavy bleeding (i.e., no bleeding except spotting) ([4]; last 28 days of treatment): 22 (88.0%) n (%) | No normal/heavy bleeding ([4]; last 28 days of treatment): 23 (92.0%) n (%) | subjects reporting no menstrual bleeding (except spotting) ([4]; last 28 days of treatment): 88.0% | subjects reporting no normal or heavy bleeding ([4]; last 28 days of treatment): 92.0% | average number of hot flash per subject (any severity) ([4]; week 6): 72.6 | number of hot flash in subjects reporting severe hot flash ([4]; week 6): 63.2 | proportion of subjects reporting hot flash ([4]; week 6): 60% | Tmax (hr) | Median (FIG. 5B): 0.775 h and 1.015 h and 1.500 h | CL/F (L/hr) | Mean (FIG. 7B): 959.7 L/h and 697.6 L/h | Tmax (hr) | Median (FIG. 7B): 1.480 h | Menstruation Recovery Period, mean (women with endometriosis; 10 mg): 21 days | Any TEAEs (women with endometriosis; 10 mg (N = 103)): 89 N | Headache (women with endometriosis; 10 mg (N = 103)): 5 N | Hot flush (women with endometriosis; 10 mg (N = 103)): 12 N | Hyperhidrosis (women with endometriosis; 10 mg (N = 103)): 4 N | Menorrhagia (women with endometriosis; 10 mg (N = 103)): 11 N | Menstruation Irregular (women with endometriosis; 10 mg (N = 103)): 21 N | Metrorrhagia (women with endometriosis; 10 mg (N = 103)): 28 N | Nasopharyngitis (women with endometriosis; 10 mg (N = 103)): 31 N | Oligomenorrhea (women with endometriosis; 10 mg (N = 103)): 12 N | Serious TEAEs (women with endometriosis; 10 mg (N = 103)): 0 N | TEAEs Leading to Study Drug Discontinuation (women with endometriosis; 10 mg (N = 103)): 1 N | TEAEs Related to Study Drug (women with endometriosis; 10 mg (N = 103)): 68 N | TEAEs, Mild (women with endometriosis; 10 mg (N = 103)): 83 N | TEAEs, Moderate (women with endometriosis; 10 mg (N = 103)): 6 N | TEAEs, Severe (women with endometriosis; 10 mg (N = 103)): 0 N | Change from Baseline in BMD, mean (women with endometriosis; 10 mg): −1.6% | Menstruation Recovery Period, mean (women with endometriosis; 20 mg): 26 days | Any TEAEs (women with endometriosis; 20 mg (N = 100)): 96 N | Headache (women with endometriosis; 20 mg (N = 100)): 12 N | Hot flush (women with endometriosis; 20 mg (N = 100)): 23 N | Hyperhidrosis (women with endometriosis; 20 mg (N = 100)): 11 N | Menorrhagia (women with endometriosis; 20 mg (N = 100)): 16 N | Menstruation Irregular (women with endometriosis; 20 mg (N = 100)): 21 N | Metrorrhagia (women with endometriosis; 20 mg (N = 100)): 36 N | Nasopharyngitis (women with endometriosis; 20 mg (N = 100)): 31 N | Oligomenorrhea (women with endometriosis; 20 mg (N = 100)): 12 N | Serious TEAEs (women with endometriosis; 20 mg (N = 100)): 2 N | TEAEs Leading to Study Drug Discontinuation (women with endometriosis; 20 mg (N = 100)): 7 N | TEAEs Related to Study Drug (women with endometriosis; 20 mg (N = 100)): 88 N | TEAEs, Mild (women with endometriosis; 20 mg (N = 100)): 82 N | TEAEs, Moderate (women with endometriosis; 20 mg (N = 100)): 14 N | TEAEs, Severe (women with endometriosis; 20 mg (N = 100)): 0 N | Change from Baseline in BMD, mean (women with endometriosis; 20 mg): −2.6% | Menstruation Recovery Period, mean (women with endometriosis; 40 mg): 37 days | Any TEAEs (women with endometriosis; 40 mg (N = 103)): 98 N | Headache (women with endometriosis; 40 mg (N = 103)): 11 N | Hot flush (women with endometriosis; 40 mg (N = 103)): 55 N | Hyperhidrosis (women with endometriosis; 40 mg (N = 103)): 10 N | Menorrhagia (women with endometriosis; 40 mg (N = 103)): 15 N | Menstruation Irregular (women with endometriosis; 40 mg (N = 103)): 7 N | Metrorrhagia (women with endometriosis; 40 mg (N = 103)): 30 N | Nasopharyngitis (women with endometriosis; 40 mg (N = 103)): 31 N | Oligomenorrhea (women with endometriosis; 40 mg (N = 103)): 1 N | Serious TEAEs (women with endometriosis; 40 mg (N = 103)): 0 N | TEAEs Leading to Study Drug Discontinuation (women with endometriosis; 40 mg (N = 103)): 2 N | TEAEs Related to Study Drug (women with endometriosis; 40 mg (N = 103)): 91 N | TEAEs, Mild (women with endometriosis; 40 mg (N = 103)): 83 N | TEAEs, Moderate (women with endometriosis; 40 mg (N = 103)): 15 N | TEAEs, Severe (women with endometriosis; 40 mg (N = 103)): 0 N | Change from Baseline in BMD, mean (women with endometriosis; 40 mg): −4.9%

CCNC(=O)[C@@H]1CCCN1C(=O)[C@H](CCCNC(=N)N)NC(=O)[C@H](CC(C)C)NC(=O)[C@@H](CC(C)C)NC(=O)[C@H](Cc1ccc(O)cc1)NC(=O)[C@H](CO)NC(=O)[C@H](Cc1c[nH]c2ccccc12)NC(=O)[C@H](Cc1c[nH]cn1)NC(=O)[C@@H]1CCC(=O)N1 [leuprolide acetate, reference compound]
AE leading to discontinuation: Abdominal pain [5]: 1(0.7) n(%) | AE leading to discontinuation: Arthralgia [5]: 1(0.7) n(%) | AE leading to discontinuation: Back pain [5]: 1(0.7) n(%) | AE leading to discontinuation: Blood pressure increased [5]: 1(0.7) n(%) | AE leading to discontinuation: Depression [5]: 0(0.0) n(%) | AE leading to discontinuation: Drug eruption [5]: 1(0.7) n(%) | AE leading to discontinuation: Fatigue [5]: 0(0.0) n(%) | AE leading to discontinuation: Headache [5]: 0(0.0) n(%) | AE leading to discontinuation: Hot flush [5]: 1(0.7) n(%) | AE leading to discontinuation: Hypertension [5]: 1(0.7) n(%) | AE leading to discontinuation: Liver function test abnormal [5]: 1(0.7) n(%) | AE leading to discontinuation: Liver function test increased [5]: 1(0.7) n(%) | AE leading to discontinuation: Malaise [5]: 1(0.7) n(%) | AE leading to discontinuation: Nausea [5]: 1(0.7) n(%) | AE leading to discontinuation: Pyrexia [5]: 1(0.7) n(%) | AE leading to discontinuation: Tenosynovitis [5]: 0(0.0) n(%) | AE leading to discontinuation: Tenosynovitis stenosans [5]: 0(0.0) n(%) | AE: Arthralgia [5]: 9(6.3) n(%) | AE: Bone density decreased [5]: 8(5.6) n(%) | AE: Bone resorption test abnormal [5]: 7(4.9) n(%) | AE: Dizziness [5]: 7(4.9) n(%) | AE: Gamma-glutamyl transferase increased [5]: 9(6.3) n(%) | AE: Genital haemorrhage [5]: 7(4.9) n(%) | AE: Headache [5]: 14(9.9) n(%) | AE: Hot flush [5]: 75(52.8) n(%) | AE: Hyperhidrosis [5]: 15(10.6) n(%) | AE: Malaise [5]: 5(3.5) n(%) | AE: Menorrhagia [5]: 22(15.5) n(%) | AE: Metrorrhagia [5]: 93(65.5) n(%) | AE: Resorption bone increased [5]: 8(5.6) n(%) | AE: Somnolence [5]: 6(4.2) n(%) | AE: Viral upper respiratory tract infection [5]: 46(32.4) n(%) | AEs Leading to Study Drug Discontinuation [5]: 7(4.9) n(%) | ALP > 3 × ULN [5]: 0 (0.0) n (%) | ALT > 3 × ULN [5]: 2 (1.4) n (%) | ALT > 5 × ULN [5]: 0 (0.0) n (%) | ALT and AST > 3 × ULN [5]: 0 (0.0) n (%) | ALT or AST > 3 × ULN with Tbili > 2 × ULN [5]: 0 (0.0) n (%) | AST > 3 × ULN [5]: 0 (0.0) n (%) | AST > 5 × ULN [5]: 0 (0.0) n (%) | Any Markedly Abnormal LFT [5]: 2 (1.4) n (%) | SAEs Leading to Study Drug Discontinuation [5]: 0(0.0) n(%) | Serious Treatment-Emergent AEs [5]: 2(1.4) n(%) | Serious Treatment-Emergent AEs, Not Related [5]: 2(1.4) n(%) | Serious Treatment-Emergent AEs, Related [5]: 0(0.0) n(%) | Treatment-Emergent AEs [5]: 139(97.9) n(%) | Treatment-Emergent AEs, Not Related [5]: 5(3.5) n(%) | Treatment-Emergent AEs, Related [5]: 134(94.4) n(%)
